In one test the test system is BRD2, BRD3, and BRD4. The following applies: read-out: EC50, inhibitor of BRD2, BRD3, and BRD4; cited from earlier work.
The next test deals with BRD4 (Homo sapiens, UniProt O60885). The following applies: BT-474 cells (HER2-positive), 24 hours treatment, various concentrations up to 1 μM, western blot. In general terms: A western blot detects proteins with antibodies after separation by electrophoresis.

Usually EC50 stands for the concentration that produces a half-maximal response. Turning to `Cc1sc2c(c1C)C(c1ccc(Cl)cc1)=N[C@@H](CC(=O)Nc1ccc(O)cc1)c1nnc(C)n1-2` [OTX015], in the test on BRD2, BRD3, and BRD4, the EC50 is 10 to 19 nM.

`Cc1sc2c(c1C)C(c1ccc(Cl)cc1)=N[C@@H](CC(=O)Nc1ccc(OCCOCCN(CCOCCNc3cccc4c3C(=O)N(C3CCC(=O)NC3=O)C4=O)C(=O)OCc3ccc(NC(=O)[C@H](CCCNC(N)=O)NC(=O)[C@@H](NC(=O)CCCCCN4C(=O)C=CC4=O)C(C)C)cc3)cc1)c1nnc(C)n1-2` (stereo partly drawn) [Compound 7]: the BRD4 protein degradation result on BRD4 was “cannot degrade BRD4 protein”.

`Cc1sc2c(c1C)C(c1ccc(Cl)cc1)=N[C@@H](CC(=O)Nc1ccc(OCCOCCNCCOCCNc3cccc4c3C(=O)N(C3CCC(=O)NC3=O)C4=O)cc1)c1nnc(C)n1-2` (stereo partly drawn) [Compound 5]: the BRD4 protein degradation entry on BRD4 is given as “as effective as ARV-825”.

The values above are taken from patent US20210015942A1, “ANTIBODY PROTAC CONJUGATES” (Development Center for Biotechnology, priority 2018, published 2021).
